Measured values taken from patent US11129807B2, “Methods of treating schizophrenia” (Sunovion Pharmaceuticals Inc., priority 2017, dated 2021).

Columns and labels:
[1] = system: PCP-Induced Hyperactivity Responses in Mice; assay: PCP-induced hyperactivity (open field) in mice;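 also: plus means significant inhibition of PCP hyperactivity at P below 0.05 and minus means none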; format: in vivo; settings: male C57Bl/6J mice, vs. vehicle + PCP
Method: (§1) Anti-psychotic like activity of the compounds was evaluated in mice using the PCP hyperactivity and Pre-Pulse Inhibition (PPI) models of schizophrenia.
(§2) Methods: Animals: Male C57Bl/6J mice from Jackson Laboratories (Bar Harbor, Me.) were used. Upon receipt, mice were assigned unique identification numbers (tail marked) and were group housed with 4 mice per cage in OptiMICE ventilated cages. All animals remained housed in groups of four during the remainder of the study. All mice were acclimated to the colony room for at least two weeks prior to testing. During the period of acclimation, mice were examined on a regular basis, handled, and weighed to assure adequate health and suitability. Animals were maintained on a 12/12 light/dark cycle. The room temperature was maintained between 20 and 23° C. with a relative humidity maintained between 30% and 70%. Chow and water were provided ad libitum for the duration of the study. In each test, animals were randomly assigned across treatment groups.
The analysis was configured to divide the open field into a center and periphery zone. Distance traveled was measured from horizontal beam breaks as the mouse moved whereas rearing activity was measured from vertical beam breaks.
Mice were injected with vehicle, test compound, or clozapine (1 mg/kg; i.p) and placed in the OF chambers for 30 min measurement of baseline activity. Mice were then injected with either water or PCP (5 mg/kg; i.p) and placed back in the OF chambers for a 60-minute session. At the end of each OF test session the OF chambers were thoroughly cleaned.

[2] = system: Pre-pulse Inhibition (PPI) in Mice; assay: Pre-pulse inhibition (PPI) of startle in mice;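 also: plus grades count prepulse intensities with significant PPI increase at P below 0.05 and minus means no change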; format: in vivo; settings: 30 min prior to PPI test, male C57Bl/6J mice, vs. vehicle
Method: as §1, §2
Prepulse Inhibition of Startle: The acoustic startle is an unconditioned reflex response to an external auditory stimulus. Prepulse inhibition of startle (PPI) refers to the reduction in the startle response caused by the presentation of a low-intensity auditory stimulus prior to the startle stimulus. The PPI paradigm is used for the study of schizophrenia and antipsychotic action due to the similarities between the results from human and rodent studies. […] Various psychotomimetic drugs such as PCP can disrupt PPI. In mice, antipsychotic drugs such as clozapine can reverse the disruption of PPI induced by PCP.
Mice were placed in the PPI chambers (Med Associates) for a 5 min session of white noise (70 dB) habituation. After the habituation period the test session was initiated. The session started with a habituation block of 6 presentations of the startle stimulus alone, followed by 10 PPI blocks, each of which consisted of 6 different types of trials. Trial types were: ‘null’ (no stimuli), ‘startle’ (120 dB), ‘startle plus prepulse’ (4, 8 and 12 dB over background noise, i.e., 74, 78 or 82 dB) and ‘prepulse’ (82 dB). Trial types were presented in a random order within each block. Each trial started with a 50 ms stimulus-free period during which baseline movements were recorded. This was followed by a subsequent 20 ms period during which the prepulse stimulus was presented and responses to the prepulse measured. After a further 100 ms period, the startle stimulus was presented for 40 ms and responses recorded for 100 ms from startle onset. Responses were sampled every ms. The inter-trial interval was variable with an average of 15 s (range from 10 to 20 s). In ‘startle’ trials the basic auditory startle response was measured. The basic startle response was calculated as the mean startle response of all ‘startle’ trials (i.e., excluding the first habituation block). In ‘startle plus prepulse’ trials the degree of inhibition of the normal startle was calculated and expressed as a percentage of the basic startle response.
Mice were treated with vehicle, haloperidol (1 mg/kg; i.p) or test compound 30 min prior to PPI test. The PPI enclosures were cleaned following each test.

[3] = system: patients with an acute exacerbation of schizophrenia (PANSS symptom factors); assay: Pooled 6-week placebo-controlled lurasidone studies in acute schizophrenia (PANSS Analysis Study): effect sizes on Marder and transformed PANSS factors; format: in vivo, human; settings: FIG. 3B, given as r=
Method: Profile of active drug effects on schizophrenia symptom domains. In the left panel of FIG. 3B, shown are lurasidone vs placebo effect sizes (with 95% CI) for change from baseline at week 6 endpoint, based on the Marder PANSS factors. In the right panel of FIG. 3B, the same lurasidone vs placebo effect sizes at endpoint are shown based on the transformed PANSS factors. Drug effects were constructed using a pool of all lurasidone doses (40, 80, 120, or 160 mg/day, total N=993) and excluded active comparators (olanzapine, quetiapine-XR). To examine placebo effects on PANSS factors, placebo treated patients (N=484) were pooled across all studies. Transformed PANSS factors were calculated using the coefficients of the score matrix (see FIG. 4 and Table 4A).
The analysis sample consisted of PANSS data derived from 5 similarly-designed, randomized, double-blind, placebo-controlled, 6-week treatment studies of lurasidone or active comparator for the treatment of patients with an acute exacerbation of schizophrenia. Patients (N=1,710) were included in this analysis if they had received at least one dose of study drug, and had at least one post-baseline PANSS assessment. The analysis pooled all lurasidone doses (40, 80, 120, or 160 mg/d, total N=993), and excluded active comparators (olanzapine, quetiapine-XR). To examine placebo effects on PANSS factors, placebo treated patients (N=484) were pooled across all studies. Herein also referred to as the “PANSS Analysis Study.”
The Uncorrelated PANSS Score Matrix (UPSM) of FIG. 4 and Table 4A was derived using PROC FACTOR procedure of SAS 9.4 with maximum likelihood method (maximum likelihood factor analysis), rotated using the varimax algorithm and compensated for communality greater than 1 using Heywood criteria without a limit on the number of factors produced. A last observation carried forward (LOCF) data imputation method was applied for missing post-baseline PANSS assessments.
The ratings of 30 items in the PANSS data of the PANSS Analysis Study were transformed to transformed PANSS factor scores using a score matrix identified by the maximum likelihood method factor analysis conducted on all change from baseline PANSS data from the 5 short-term clinical trials in the pooled analysis sample. The score matrix, also referred to here as the UPSM, consisted of coefficients multiplying the numerical ratings of each PANSS item differentially for each of the factor scores.
The change-from-baseline PANSS data for all patients and all observations N was a matrix of dimensions (N observations×30 items). To increase precision, the score matrix coefficients were determined using all change-from-baseline observations at Weeks 1-6. The resultant score matrix (30 items×7 factors), or UPSM, was used to transform individual PANSS item change scores (without standardization) to reduce the dimensionality into 7-factor values for each PANSS assessment. FIG. 4 and Table 4A summarize the score matrix (UPSM) weights for individual PANSS items used to generate the transformed PANSS factors.
The weighted score matrix transformation was performed on each of the PANSS item baseline-to-endpoint change scores. This transformation yielded 5 transformed PANSS factors that corresponded to the Marder PANSS factors, with two of the factors (negative symptoms and depression/anxiety) further subdivided into sub-factors (corresponding to the symptom sub-domains of: apathy/avolition and deficit of expression; and depression and anxiety, respectively).
The Validation Study data transformed PANSS factors of Example 1 were used to compare treatment effects of an antipsychotic (lurasidone) on established schizophrenia symptom domains with those estimated using Marder PANSS factors.

[4] = 0.3 mg/kg Compound + PCP (5 mg/kg; i.p)
[5] = 1 mg/kg Compound + PCP (5 mg/kg; i.p)
[6] = 3 mg/kg Compound + PCP (5 mg/kg; i.p)
[7] = 10 mg/kg Compound + PCP (5 mg/kg; i.p)
[8] = 30 mg/kg Compound + PCP (5 mg/kg; i.p)

Structure (SMILES) | Total Distance Traveled (cm) [1, 4] | Total Distance Traveled (cm) [1, 5] | Total Distance Traveled (cm) [1, 6] | Total Distance Traveled (cm) [1, 7] | Total Distance Traveled (cm) [1, 8] | Effect on Pre-pulse Inhibition (PPI) ([2]; 3 mg/kg) | Effect on Pre-pulse Inhibition (PPI) ([2]; 10 mg/kg) | Effect on Pre-pulse Inhibition (PPI) ([2]; 30 mg/kg) | further results
CNC[C@H]1OCCc2c(C)csc21 [Compound 172] | − | + | + | − | − | − | − | − | Effect on Pre-pulse Inhibition (PPI) ([2]; 100 mg/kg): −
c1cc2c(s1)[C@@H]([C@H]1CCCN1)OCC2 [Compound 205] | + | + | + | + | + | − | − | +++ | 
C[C@H](N)[C@@H]1OCCc2ccsc21 [Compound 213] | + | + | + | + | + | − | +++ | +++ | 
CCNC[C@H]1OCCc2ccsc21 [Compound 242] | − | + | + | + | + | − | − | − | 
CCNC[C@@H]1OCCc2sccc21 [Compound 310] | + | − | − | + | + | − | − | +++ | 
CCNC[C@H]1OCCc2sccc21 [Compound 311] | − | + | + | + | + | − | − | +++ | 
O=C1[C@@H]2[C@H]3CC[C@H](C3)[C@@H]2C(=O)N1C[C@@H]1CCCC[C@H]1CN1CCN(c2nsc3ccccc23)CC1 [lurasidone] |  |  |  |  |  |  |  |  | effect size, Marder negative symptom factor ([3]; change score): 0.35; effect size, transformed PANSS negative symptoms deficit of expression ([3]; change score): 0.04; effect size, transformed PANSS negative symptoms of apathy/avolition ([3]; change score): 0.22; effect size, Marder PANSS disorganized factor change score [3]: 0.48; effect size, Marder PANSS factor change score compared with transformed anxiety factor [3]: 0.38; effect size, Marder PANSS factor change score compared with transformed depression factor [3]: 0.38; effect size, Marder PANSS hostility factor change score [3]: 0.43; effect size, Marder PANSS positive factor change score [3]: 0.59; effect size, transformed PANSS anxiety factor change score [3]: 0.24; effect size, transformed PANSS depression factor change score [3]: 0.16; effect size, transformed PANSS disorganized factor change score [3]: 0.23; effect size, transformed PANSS hostility factor change score [3]: 0.31; effect size, transformed PANSS positive factor change score [3]: 0.45
